In brackets after ≈: the same amount, converted by molar mass. Read-outs that look alike come from different tables or passages of the source.
Tests used:
[1] = system: gram-negative and gram-positive bacteria; assay: antibacterial activity, in words; format: cell-based; settings: optically active L- or D-isoseryl form
Procedure: (§1) The minimum inhibitory concentrations (mcg/ml) of 1-N-DL-isoserylkanamycin,1-N-DL-isoserylkanamycin B and 1-N-DL-isoseryl-3',4'-dideoxykanamycin B against various microorganisms were determined according to the serial dilution method using nutrient agar medium at 37°C, the estimation being effected after 18 hours incubation. For comparison purposes, the minimum inhibitory concentrations of kanamycin, kanamycin B and 3',4'-dideoxykanamycin B were also determined in the same manner and under the same conditions as mentioned above.
(§2) The antibacterial spectra of 1-N-DL-isoseryl-kanamycin (abbreviated as 1-IS-KM), 1-N-DL-isoseryl-kanamycin B (abbreviated as 1-IS-KMB) and 1-N-DL-isoseryl-3',4'-dideoxykanamycin B (abbreviated as 1-IS-DKB) are shown in the following table together with those of kanamycin (abbreviatedas KM), kanamycin B (abbreviated as KMB) and 3',4'-dideoxykanamycin B (abbreviated as DKB).

mice = assay: acute toxicity upon intravenous injection in mice; format: in vivo; settings: optically active L- or D-isoseryl form
phosphotransferase = settings: phosphorylation of the 3'-hydroxyl group; cited from earlier work
[2] = system: kanamycin-resistant strains; settings: phosphotransferase-producing resistant strains; cited from earlier work
[3] = system: Escherichia coli JR66/W677; settings: nucleotidyltransferase-producing resistant strain; cited from earlier work
[4] = system: Escherichia coli K-12 ML 1410 R81; assay: Minimum inhibitory concentration, serial dilution on nutrient agar; format: cell-based; settings: 18 h, read-out: Minimum Inhibitory Concentration
[5] = system: Pseudomonas aeruginosa 99; assay: as above; format: cell-based; settings: read-out: Minimum Inhibitory Concentration
[6] = system: Pseudomonas aeruginosa No.12; assay: as above; format: cell-based; settings: read-out: Minimum Inhibitory Concentration
[7] = system: Bacillus subtilis NRRL B-558; assay: as above; format: cell-based; settings: read-out: Minimum Inhibitory Concentration
[8] = system: Escherichia coli LA290 R56; assay: as above; format: cell-based; settings: LA290R56, 18 h, read-out: Minimum Inhibitory Concentration
[9] = system: Shigella flexneri 4b JS 11811; assay: as above; format: cell-based; settings: 4BJS11811, 37°C, 18 hours
Procedure: as §1, §2

[10] = system: Pseudomonas aeruginosa A3; assay: as above; format: cell-based; settings: 37°C, 18 hours
Procedure: as §1, §2

Shigella sonnei JS 11746 = assay: as above; format: cell-based; settings: JS11746, 37°C, 18 hours
Procedure: as §1, §2

[11] = system: Escherichia coli K-12 ML 1630; assay: as above; format: cell-based; settings: K12ML1630, 37°C, 18 hours
Procedure: as §1, §2

[12] = system: Pseudomonas aeruginosa TI-13; assay: as above; format: cell-based; settings: TI13, 37°C, 18 hours
Procedure: as §1, §2

[13] = system: Escherichia coli LA290 R64; assay: as above; format: cell-based; settings: LA290R64, 18 h, read-out: Minimum Inhibitory Concentration
Bacillus anthracis = assay: microbe, parasite or virus in culture; format: cell-based; settings: 18 h, read-out: Minimum Inhibitory Concentration
[14] = system: Klebsiella pneumoniae 22 No. 3038; assay: Minimum inhibitory concentration, serial dilution on nutrient agar; format: cell-based; settings: read-out: Minimum Inhibitory Concentration
[15] = system: Corynebacterium bovis 1810; assay: as above; format: cell-based; settings: read-out: Minimum Inhibitory Concentration
[16] = system: Bacillus cereus ATCC 10702; assay: as above; format: cell-based; settings: read-out: Minimum Inhibitory Concentration
Proteus vulgaris OX 19 = assay: as above; format: cell-based; settings: read-out: Minimum Inhibitory Concentration
Escherichia coli K-12 = assay: as above; format: cell-based; settings: read-out: Minimum Inhibitory Concentration
[17] = system: Escherichia coli JR66/W677; assay: as above; format: cell-based; settings: JR66/W677, 37°C, 18 hours, read-out: Minimum Inhibitory Concentration
[18] = system: Escherichia coli K-12 ML 1410; assay: as above; format: cell-based; settings: K12ML1410, 18 h, read-out: Minimum Inhibitory Concentration
Escherichia coli W677 = assay: as above; format: cell-based; settings: read-out: Minimum Inhibitory Concentration
[19] = system: Shigella dysenteriae JS 11910; assay: as above; format: cell-based; settings: JS11910, 18 h, read-out: Minimum Inhibitory Concentration
[20] = system: Salmonella enteritidis 1891; assay: as above; format: cell-based; settings: Salmonella enterica, 18 h, read-out: Minimum Inhibitory Concentration
[21] = system: Escherichia coli LA290 R55; assay: as above; format: cell-based; settings: LA290R55, 18 h, read-out: Minimum Inhibitory Concentration
[22] = system: Mycobacterium smegmatis ATCC 607; assay: as above; format: cell-based; settings: Mycolicibacterium smegmatis, read-out: Minimum Inhibitory Concentration
Sarcina lutea PCI 1001 = assay: as above; format: cell-based; settings: Micrococcus luteus, read-out: Minimum Inhibitory Concentration
[23] = system: Staphylococcus aureus Terajima; assay: as above; format: cell-based; settings: read-out: Minimum Inhibitory Concentration
nucleotidyltransferase = settings: adenylylation of 2"-hydroxyl group with ATP; cited from earlier work
[24] = system: Pseudomonas aeruginosa GN315; assay: Minimum inhibitory concentration, serial dilution on nutrient agar; format: cell-based; settings: read-out: Minimum Inhibitory Concentration
[25] = system: Staphylococcus aureus FDA 209P; assay: as above; format: cell-based; settings: FDA209P, read-out: Minimum Inhibitory Concentration
Salmonella typhosa T-63 = assay: as above; format: cell-based; settings: Salmonella enterica, 18 h, read-out: Minimum Inhibitory Concentration
[26] = system: Bacillus subtilis PCI 219; assay: as above; format: cell-based; settings: read-out: Minimum Inhibitory Concentration
[27] = system: Klebsiella pneumoniae PCI 602; assay: as above; format: cell-based; settings: read-out: Minimum Inhibitory Concentration
Escherichia coli NIHJ = assay: as above; format: cell-based; settings: read-out: Minimum Inhibitory Concentration
[28] = system: Escherichia coli K-12 ML 1629; assay: as above; format: cell-based; settings: K12ML1629, 37°C, 18 hours, read-out: Minimum Inhibitory Concentration
[29] = system: Staphylococcus aureus Smith; assay: as above; format: cell-based; settings: read-out: Minimum Inhibitory Concentration
[30] = system: kanamycin- and ribostamycin-resistant bacteria; settings: some kanamycin- and ribostamycin-resistant bacteria; cited from earlier work

## NC[C@@H](O)C(=O)N[C@@H]1C[C@H](N)[C@@H](O[C@H]2O[C@H](CN)[C@@H](O)[C@H](O)[C@H]2O)[C@H](O)[C@H]1O[C@H]1O[C@H](CO)[C@@H](O)[C@H](N)[C@H]1O [1-N-D-isoserylkanamycin]
[1]
  antibacterial activity relative to the DL-form (racemic form): the same as those of 1-N-DL-isoserylkanamycin
mice
  toxicity relative to the DL-form: the same as those of 1-N-DL-isoserylkanamycin

## NC[C@H](O)C(=O)N[C@@H]1C[C@H](N)[C@@H](O[C@H]2O[C@H](CN)[C@@H](O)[C@H](O)[C@H]2O)[C@H](O)[C@H]1O[C@H]1O[C@H](CO)[C@@H](O)[C@H](N)[C@H]1O [1-N-L-isoserylkanamycin]
[1]
  antibacterial activity relative to the DL-form (racemic form): the same as those of 1-N-DL-isoserylkanamycin
mice
  toxicity relative to the DL-form: the same as those of 1-N-DL-isoserylkanamycin

## NC[C@H]1O[C@H](O[C@H]2[C@H](O)[C@@H](O[C@H]3O[C@H](CO)[C@@H](O)[C@H](N)[C@H]3O)[C@H](N)C[C@@H]2N)[C@H](O)C[C@@H]1O [3'-Deoxykanamycin]
phosphotransferase
  susceptibility to / inactivation by phosphotransferase: not susceptible
[2]
  activity against kanamycin-resistant strains: actually effective
[3]
  activity against Escherichia coli JR66/W677: inactive

## NC[C@@H]1CC[C@@H](N)[C@@H](O[C@H]2[C@H](O)[C@@H](O[C@H]3O[C@H](CO)[C@@H](O)[C@H](N)[C@H]3O)[C@H](N)C[C@@H]2N)O1 [DKB, 3',4'-dideoxykanamycin B, reference compound]
[4]
  MIC: 1.56 µg/mL (≈ 3.45 µM)
[5]; Pseudomonas aeruginosa, 99, 37°C, 18 hours
  MIC: 3.13 µg/mL (≈ 6.93 µM)
[6]; NO.12, 37°C, 18 hours
  MIC: 0.78 µg/mL (≈ 1.73 µM)
phosphotransferase
  susceptibility to / inactivation by phosphotransferase: not susceptible
[7]; NRRLB558, 37°C, 18 hours
  MIC: < 0.2 µg/mL
[8]
  MIC: 12.5 µg/mL (≈ 27.7 µM)
[9]
  MIC: 1.56 µg/mL (≈ 3.45 µM)
[10]
  MIC: 1.56 µg/mL (≈ 3.45 µM)
Shigella sonnei JS 11746
  MIC: 0.78 µg/mL (≈ 1.73 µM)
[11]
  MIC: 0.78 µg/mL (≈ 1.73 µM)
[12]
  MIC: 1.56 µg/mL (≈ 3.45 µM)
[13]
  MIC: 6.25 µg/mL (≈ 13.8 µM)
Bacillus anthracis
  MIC: < 0.2 µg/mL
[14]; 22NO.3038, 37°C, 18 hours
  MIC: 100 µg/mL (≈ 221 µM)
[15]; Corynebacterium bovis, 1810, 37°C, 18 hours
  MIC: 3.13 µg/mL (≈ 6.93 µM)
[2]
  activity against kanamycin-resistant strains: actually effective
[16]; ATCC10702, 37°C, 18 hours
  MIC: 0.78 µg/mL (≈ 1.73 µM)
Proteus vulgaris OX 19; OX19, 37°C, 18 hours
  MIC: < 0.2 µg/mL
Escherichia coli K-12; K12, 37°C, 18 hours
  MIC: 0.78 µg/mL (≈ 1.73 µM)
[17]
  MIC: 50 µg/mL (≈ 111 µM)
[18]
  MIC: 1.56 µg/mL (≈ 3.45 µM)
Escherichia coli W677; W677, 37°C, 18 hours
  MIC: 0.2 µg/mL (≈ 0.443 µM)
[19]
  MIC: 1.56 µg/mL (≈ 3.45 µM)
[20]
  MIC: 1.56 µg/mL (≈ 3.45 µM)
[21]
  MIC: 50 µg/mL (≈ 111 µM)
[22]; ATCC607, 37°C, 18 hours
  MIC: 0.39 µg/mL (≈ 0.864 µM)
Sarcina lutea PCI 1001; PCI1001, 37°C, 18 hours
  MIC: 6.25 µg/mL (≈ 13.8 µM)
[23]; 37°C, 18 hours
  MIC: < 0.2 µg/mL
nucleotidyltransferase
  inactivation by nucleotidyltransferase: inactivating
[3]
  activity against Escherichia coli JR66/W677: inactive
[24]; GN315, 37°C, 18 hours
  MIC: > 100 µg/mL
[25]; 37°C, 18 hours
  MIC: < 0.2 µg/mL
Salmonella typhosa T-63
  MIC: < 0.2 µg/mL
[26]; PCI219, 37°C, 18 hours
  MIC: < 0.2 µg/mL
[27]; PCI602, 37°C, 18 hours
  MIC: 0.39 µg/mL (≈ 0.864 µM)
Escherichia coli NIHJ; 37°C, 18 hours
  MIC: 0.39 µg/mL (≈ 0.864 µM)
[28]
  MIC: 0.78 µg/mL (≈ 1.73 µM)
[29]; 37°C, 18 hours
  MIC: < 0.2 µg/mL

## NC[C@H]1O[C@H](O[C@H]2[C@H](O)[C@@H](O[C@H]3O[C@H](CO)[C@@H](O)[C@H](N)[C@H]3O)[C@H](N)C[C@@H]2N)[C@H](O)[C@@H](O)[C@@H]1O [KM, kanamycin]
[4]
  MIC: > 100 µg/mL
[5]; Pseudomonas aeruginosa, 99, 18 h
  MIC: > 100 µg/mL
[6]; NO.12, 18 h
  MIC: 25 µg/mL (≈ 51.6 µM)
[7]; NRRLB558, 18 h
  MIC: < 0.2 µg/mL
[8]
  MIC: 12.5 µg/mL (≈ 25.8 µM)
[9]
  MIC: 6.25 µg/mL (≈ 12.9 µM)
[10]
  MIC: 50 µg/mL (≈ 103 µM)
Shigella sonnei JS 11746
  MIC: 3.13 µg/mL (≈ 6.46 µM)
[11]
  MIC: > 100 µg/mL
[12]
  MIC: > 100 µg/mL
[13]
  MIC: 12.5 µg/mL (≈ 25.8 µM)
Bacillus anthracis
  MIC: < 0.2 µg/mL
[14]; 22NO.3038, 18 h
  MIC: > 100 µg/mL
[15]; Corynebacterium bovis, 1810, 18 h
  MIC: 3.13 µg/mL (≈ 6.46 µM)
[16]; ATCC10702, 18 h
  MIC: 1.56 µg/mL (≈ 3.22 µM)
Proteus vulgaris OX 19; OX19, 18 h
  MIC: 0.78 µg/mL (≈ 1.61 µM)
Escherichia coli K-12; K12, 18 h
  MIC: 1.56 µg/mL (≈ 3.22 µM)
[17]
  MIC: > 100 µg/mL
[18]
  MIC: 1.56 µg/mL (≈ 3.22 µM)
Escherichia coli W677; W677, 18 h
  MIC: 1.56 µg/mL (≈ 3.22 µM)
[19]
  MIC: 6.25 µg/mL (≈ 12.9 µM)
[20]
  MIC: 0.78 µg/mL (≈ 1.61 µM)
[21]
  MIC: 100 µg/mL (≈ 206 µM)
[22]; ATCC607, 18 h
  MIC: 0.78 µg/mL (≈ 1.61 µM)
Sarcina lutea PCI 1001; PCI1001, 18 h
  MIC: 6.25 µg/mL (≈ 12.9 µM)
[23]; 18 h
  MIC: < 0.2 µg/mL
nucleotidyltransferase
  inactivation by nucleotidyltransferase: inactivating
[24]; GN315, 18 h
  MIC: > 100 µg/mL
[25]; 18 h
  MIC: 0.78 µg/mL (≈ 1.61 µM)
Salmonella typhosa T-63
  MIC: 0.39 µg/mL (≈ 0.805 µM)
[26]; PCI219, 18 h
  MIC: < 0.2 µg/mL
[27]; PCI602, 18 h
  MIC: 0.78 µg/mL (≈ 1.61 µM)
Escherichia coli NIHJ; 18 h
  MIC: 1.56 µg/mL (≈ 3.22 µM)
[28]
  MIC: > 100 µg/mL
[29]; 18 h
  MIC: < 0.2 µg/mL

## NCC[C@H](O)C(=O)N[C@@H]1C[C@H](N)[C@@H](O[C@H]2O[C@H](CN)[C@@H](O)[C@H](O)[C@H]2N)[C@H](O[C@@H]2O[C@H](CO)[C@@H](O)[C@H]2O)[C@H]1O [butirosin B, 1-N-[(S)-4-amino-2-hydroxy-n-butyryl]-ribostamycin]
[30]
  activity against resistant bacteria: active
